Experimental data published in the METLIN SMRT retention time set (Domingo-Almenara et al. 2019).

Assay: gradient 5% acetonitrile 3 min, to 50% in 2 min, to 85% in 15 min, held 3 min, 100 µL/min
Details: column: Zorbax Extend-C18 2.1 x 50 mm; eluents: water / acetonitrile, 0.1% formic acid
Procedure, shortened: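 A Zorbax Extend-C18 column (2.1 × 50 mm, 1.8 μm) run at 100 μL/min with water and acetonitrile, both containing 0.1% formic acid, separated mixtures of ~100 pure standards. The HPLC was coupled to a quadrupole time-of-flight mass spectrometer operated in positive and negative ionization mode, with dead and dwell volumes of 40 μL and 900 μL. Each retention time was taken from a computationally picked adduct peak that was then manually inspected.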

Structure (SMILES) | RP-LC retention time
CN1C(=O)c2ccccc2Oc2ccc(C(=O)N3CCC4(CC3)OCCO4)cc21 | 741 s
Cc1[nH]nc(-c2c(C)sc(C)c2S(=O)(=O)Nc2cccc(Cl)c2)c1C | 1100 s
COc1cccc(-c2nc(C3CCN(S(=O)(=O)c4cccc(C)c4)CC3)no2)c1 | 1150 s
COc1ccccc1NC(=O)N(C)CCc1noc(COc2ccc(F)cc2)n1 | 907 s
CN(Cc1ccccc1)C(=O)C1CCCN(c2nnc(N3CCCC3=O)s2)C1 (centres undefined) | 718 s
Cc1cc(C)c2c(-n3cccc3)nn(CC(=O)NC(C)CCc3ccccc3)c2n1 (centres undefined) | 1080 s
COC(=O)c1c(NCCC(C)C)c2cccc(Cl)c2[nH]c1=O | 847 s
O=C(NC1CCCC1)c1ccn[nH]1 | 614 s
Fc1ccccc1-c1ccc(CNCc2ccc3c(c2)OCO3)o1 | 695 s
CN(CC1CCOCC1)C(=O)Nc1cccc(F)c1 | 720 s
Cc1cc(NC(=O)C2CCCN(c3ccc(-c4ccc(Cl)cc4)nn3)C2)on1 (centres undefined) | 685 s
COc1cccc(Sc2ccc(N3CCC(C(=O)N4CCN(c5ccccn5)CC4)CC3)nn2)c1 | 616 s
O=C(NCCc1ccsc1)C1CC(=O)N(c2ccc(F)cc2)C1 (centres undefined) | 698 s
CCOC(=O)c1ccc(Nc2c(-c3ccc(N(C)C)cc3)nc3cnccn23)cc1 | 827 s
CC(C)(C)c1noc(-c2ccc(=O)n(Cc3ccc(Cl)cc3)n2)n1 | 1120 s
COc1ccc(Nc2c(-c3ccc(OC)cc3)nc3ncccn23)cc1 | 659 s
Cc1nnc2cc(N3CCN(S(=O)(=O)c4ccc(C(C)(C)C)cc4)CC3)cnn12 | 824 s
O=C(Nc1ccc2oc(-c3ccccc3)nc2c1)C1CCN(c2cnn(Cc3ccccc3)c(=O)c2)C1 (centres undefined) | 923 s
COC(=O)C(NC(=O)N1CC(Cn2c(C)cnc2C2CCOCC2)C1)C(C)C (centres undefined) | 600 s
Cc1ccc(Nc2c(-c3ccc(C)cc3)nc3nc(C)cc(C)n23)cc1 | 780 s
Cc1ccc(N2CCC(NC(=O)c3cccc(F)c3)C2=O)cc1C (centres undefined) | 891 s
COc1ccc2[nH]c(=O)c(CCC(=O)NCc3cccc(OC)c3OC)cc2c1 | 694 s

Structure (SMILES) | RP-LC retention time
CCC(NC(=O)c1cnc(-c2ccccc2)nc1-c1ccncc1)c1ccc(OC)cc1 (centres undefined) | 882 s
CC(C)(C)c1csc(-c2csc(S(=O)(=O)NCc3ccc(Br)cc3)c2)n1 | 1300 s
CN1C(=O)c2cccnc2Sc2cc(NC(=O)Cc3ccc(F)cc3)ccc21 | 834 s
Cc1cnc(C(=O)N2CCCCCNC(=O)[C@@H]3CCC[C@@H]32)cn1 | 623 s
Cc1cccc(-c2nnc(C)c(N3CCc4ccccc4C3)n2)c1 | 826 s
CC1CCN(C(=O)CCC(=O)N2CCN(c3nc4cccnc4s3)CC2)CC1 | 688 s
COCC(C)Nc1ncnc2c1cnn2-c1cccc(Cl)c1 (centres undefined) | 925 s
Cc1oc(C(C)C)nc1C(=O)Nc1ccc(F)c(Cl)c1 | 1170 s
COc1ccc(CN2CCN(c3cnn4c(C5CC5)nnc4c3)CC2)cc1 | 544 s
Cn1cc(CN2CCC(C(=O)NCc3ccccc3F)CC2)c2cc(Cl)ccc21 | 705 s
O=S(=O)(NCCN1CCN(c2ccc(Cl)cc2)CC1)c1ccc2c(c1)OCCO2 | 620 s
Cc1ccc(NS(=O)(=O)c2c(C)sc(C)c2-c2cc(C(F)(F)F)on2)cc1C | 1220 s
COc1ccc(NC(=O)CSc2ccc(-c3cccs3)nn2)c(OC)c1 | 890 s
CSc1cccc(NC(=O)Cn2c(=O)n(-c3ccc(F)cc3)c(=O)c3c2cc(C)n3C)c1 | 896 s
CCOC(=O)C1=C(c2ccc(OC)cc2)NC(=O)NC1c1ccc(OC)cc1 (centres undefined) | 840 s
COCCCNC(=O)Cn1nc(C)c2nn(-c3ccc(Cl)cc3)c(-n3cccc3)c2c1=O | 887 s
COc1ccccc1N1CCN(CCCCN2C(=O)CCC2=O)CC1 | 650 s
COc1ccc(CNCCc2c(C)[nH]c3ccc(F)cc23)cc1OC | 571 s
COc1ccc(NC(=O)N2CCN(CC(=O)c3c(C)n(C)c4ccccc34)CC2)cc1 | 656 s
COc1cc(CC(=O)N2CCc3cc(-c4csc(C)n4)ccc32)cc(OC)c1 | 1020 s
O=S(=O)(c1ccc(F)c(F)c1)N1CCC(CN2CCCCCC2)CC1 | 666 s
CCc1cc(=O)n(Cc2ncc(C)c(OC)c2C)c(N2CCCC2)n1 | 554 s
